Patent publication EP0619313A1, “LITHIUM SALT OF 2-O-ALK[…]” (TSUMURA & CO., priority 1992, dated 1994)

How the values were obtained:
[1] = Water-solubility; conditions: at 28°C
[2] = Toxicity after oral or intravenous administration, rats; format: in vivo; conditions: rat, in vivo, read-out: LD₅₀
Experimental: (§1) The test compound was administered orally or intravenously to Jcl:ICR mice and Jcl:Wistar rats (two mice or rats (male and female) per group). 2-O-octadecylascorbic acid lithium obtained in Example 1 as the test compound was suspended in 0.5% methyl cellulose in the case of oral administration and dissolved in physiological saline in the case of intravenous administration.

[3] = tested on: Jcl:Wistar rats; assay: as above; format: in vivo
Experimental: as §1

[4] = target: T1, Phospholipase A₂ derived from pig pancreas (Sus scrofa, UniProt P00592); assay: Inhibitory activity against phospholipase A₂; format: biochemical; conditions: pH 9, read-out: enzymatic activity of the phospholipase inhibited
T1 construct: Phospholipase A₂ derived from pig pancreas; from tissue; host or cells: pig pancreas
Experimental: Phospholipase A₂ derived from pig pancreas was reacted for 10 minutes in 0.1M glycine-NaOH buffer (pH 9) containing a test compound (2-O-octadecylascorbic acid lithium obtained in Example 1)(300 µM) and labeled phosphatidylcholine. Thereafter, Ca⁺⁺ (2.5 mM) was added and the reaction was continued for additional 5 minutes. The reaction was stopped by adding 0.2M EDTA solution to the reaction mixture. The mixture was extracted with acidic […]. Scintillation of the […] layer was measured.

[5] = Toxicity after oral or intravenous administration, mice; format: in vivo; conditions: mouse, in vivo, read-out: LD₅₀
Experimental: as §1

[6] = tested on: Jcl:ICR mice; assay: as above; format: in vivo
Experimental: as §1

[7] = tested on: lipid peroxidation enzyme; assay: Inhibitory activity against lipid peroxidation enzyme (rat liver microsome, carbon tetrachloride, thiobarbituric acid); format: biochemical; conditions: 300 µM; carbon tetrachloride 20 mM; 37°C for 12 minutes
Experimental: Rat liver microsome (2 mg), which is a NADPH generating system, the test compound (2-O-octadecylascorbic acid lithium obtained Example 1)(300 µM) and carbon tetrachloride (20 mM) were reacted at 37°C for 12 minutes. A mixed solution of thiobarbituric acid and trichloroacetic acid was added to the solution. Absorbance was measured at 535 nm.

[8] = target: T2, GST-cdc25Hu2 fused protein (Homo sapiens, UniProt P30305); assay: GST-cdc25Hu2 (protein phosphatase) inhibitory activity; format: biochemical; conditions: 37°C for 60 minutes, read-out: cdc25 activity inhibited
T2 sequence (P30305 1-580): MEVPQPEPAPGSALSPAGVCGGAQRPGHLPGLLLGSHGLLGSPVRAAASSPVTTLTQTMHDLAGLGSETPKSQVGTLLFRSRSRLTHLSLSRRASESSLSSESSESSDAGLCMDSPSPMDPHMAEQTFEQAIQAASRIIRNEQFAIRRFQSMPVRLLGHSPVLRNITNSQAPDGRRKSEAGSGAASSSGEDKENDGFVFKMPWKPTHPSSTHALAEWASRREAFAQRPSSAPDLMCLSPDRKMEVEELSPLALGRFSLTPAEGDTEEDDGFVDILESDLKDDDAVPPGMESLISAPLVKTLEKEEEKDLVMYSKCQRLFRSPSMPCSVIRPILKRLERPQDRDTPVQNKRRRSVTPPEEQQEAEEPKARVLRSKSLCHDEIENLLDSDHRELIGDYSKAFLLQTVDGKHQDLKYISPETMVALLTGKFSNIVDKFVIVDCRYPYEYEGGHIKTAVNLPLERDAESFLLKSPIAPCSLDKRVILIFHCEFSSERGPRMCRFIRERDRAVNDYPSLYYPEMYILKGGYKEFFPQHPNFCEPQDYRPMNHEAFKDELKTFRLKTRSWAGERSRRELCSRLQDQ
Experimental: A test compound (2-O-octadecylascorbic acid lithium obtained in Example 1)(80 µM) was added to a reaction mixture containing GST-cdc25Hu2 fused protein (60 µg/ml), p-nitrophenylphosphate (manufactured by Wako Pure Chemical Industries, Ltd.)(10 mM), bovine serum albumin (manufactured by Sigma, U.S.A.)(100 µg/ml), DDT (dithiothreitol) (manufactured by Wako Pure Chemical Industries, Ltd.)(10 mM) and HEPES (2-hydroxyethylpiperazine-N'-2-ethane sulfate)(25 mM, pH 8.0). The mixture was subjected to reaction at 37°C for 60 minutes. Then, absorbance at 405 nm was measured, and the inhibitory activity was evaluated based on the decrease of the absorbance.

[9] = tested on: rabbit defibrinated blood; assay: Hemolysis test with rabbit defibrinated blood; format: cell-based; conditions: not more than 1 µg/ml in physiological saline; 37°C for 1 hour; macroscopic observation of the supernatant
Experimental: A physiological saline solution containing 2-O-octadecylascorbic acid lithium obtained in Example 1 below was warmed to 37°C, put in a Spitz roll, provided with rabbit defibrinated blood (Note)(0.1 ml) previously warmed to 37°C, shaken for mixing gently and warmed at 37°C for 1 hour. Then, this liquid was subjected to centrifugation. Macroscopic observation was made as to whether the supernatant had hemolysis.
Blood (about 20 ml) was drawn from rabbits, put in a flask containing about twenty glass beads of diameter of 8 mm, shaken for mixing gently for about 5 minutes and filtered through gauze. This preparation was carried out before use.

[10] = tested on: myocardial infarction focus; assay: Inhibition of development of myocardial infarction focus after coronary obstruction-reperfusion in rats; format: in vivo, Male Wistar-rats; conditions: 1 mg/kg intravenous
Experimental: Male Wistar-rats (11 to 12 weeks old) were used and anethesized with pentobarbital-Na, and medianus thoracotomy was carried out under artificial respiration. After incising the pericardium membrane, the heart was exposed. The base of the left coronary artery together with cardiac muscle was threaded with a sutural needle and thread (marketed by Lederle (Japan), Ltd., 7-0 silk), which were passed through a polyethylene tube, and the thread was pulled. Thus, coronary artery was obstructed. One hour later, the thread was loosed to make blood to flow again. Thirty to sixty minutes after reperfusion, the thorax was closed and the rat was kept under arousal.
After 24 hours, the rats were anesthetized again, and the heart was removed quickly and soaked in ice-cooled physiological saline. The coronary artery was obstructed again to know a dangerous region. Evans' Blue (1%) was perfused through a polyethylene tube inserted into the aorta retrogradely, and normal region was separated from the dangerous region. Thereafter, the left ventricle was divided into 6 parts parallel to the vertical axis and dyed with triphenyl tetrazolium chloride (TTC)(1%) at 37°C for 10 minutes except necrotic cells. The infarction focus was weighed. The test drug (2-O-octadecylascorbic acid obtained in Example 1) was dissolved in physiological saline, and administered intravenously 30 minutes after the coronary obstruction.

[11] = intravenous administration, dissolved in physiological saline
[12] = oral administration, suspended in 0.5% methyl cellulose

T1 sequence (P00592 23-146): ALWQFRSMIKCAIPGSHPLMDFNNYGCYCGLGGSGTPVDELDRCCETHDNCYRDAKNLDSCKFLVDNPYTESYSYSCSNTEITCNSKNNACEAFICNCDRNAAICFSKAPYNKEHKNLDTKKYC

In the case of `CCCCCCCCCCCCCCCCCCOC1=C(O)[C@@H]([C@@H](O)CO)OC1=O.[Li]` [2-O-octadecylascorbic acid lithium], the water-solubility [1] is reported as 1 g/83 ml (water), the LD50 [2, 11] is reported as 25 to 50 mg/kg and the LD50 [2, 12] is reported as ≥ 2000 mg/kg. For the same compound, the “Abnormal findings in the autopsy of the survivors” value [3] was “not observed”, the “autopsy of the dead animals” value ([3]; intravenous administration) was “Pulmonary congestion was observed” and the inhibition at 300 µM [4] was 59%. For the same compound, the LD50 [5, 11] was 25 to 50 mg/kg, the LD50 [5, 12] was ≥ 2000 mg/kg and the “Abnormal findings in the autopsy of the survivors” value [6] was “not observed”. For the same compound, the “autopsy of the dead animals” value ([6]; intravenous administration) was “Pulmonary congestion was observed”, the “inhibitory ratio of the enzymatic activity” value [7] was 75% and the inhibition at 80 µM [8] was 93.6%. The hemolysis [9] was “not observed”, the “infarction focus per the dangerous region (IS/AR)” value ([10]; 30 minutes after the coronary obstruction, N=7, control 60.0±1.8%) was 40.5±4.6% and the “inhibition in comparison with the control group” value ([10]; P<0.001) was 32.7%. For the same compound, the “dangerous region per left ventricle (AR/LV)” value ([10]; compared with the physiological saline group) was “no significant difference”.
